This experiment concerns BDF1 mice, B16 melanoma ip, median survival T/C. Put plainly: NCI In Vivo Anticancer Drug Screen. Data for tumor model B16 Melanoma (intraperitoneal) in B6D2F1 (BDF1) mice. Particulars: endpoint: median survival time, higher = longer survival. In short, it runs like this:
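Mice with transplantable tumors; drug vs vehicle groups; endpoint survival or tumor size; value = T/C.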

[1] abbreviates: dose: 12.5 mg/kg/injection, schedule: Q01DX009 (ip), vehicle: other.
Where [2] appears, read: dose: 25.0 mg/kg/injection, schedule: Q01DX009 (ip), vehicle: other.
[3] abbreviates: dose: 6.25 mg/kg/injection, schedule: Q01DX009 (ip), vehicle: saline.
Setting [4] is: dose: 25.0 mg/kg/injection, schedule: Q01DX009 (ip), vehicle: saline.
Where [5] appears, read: dose: 50.0 mg/kg/injection, schedule: Q01DX009 (ip), vehicle: saline.
Where [6] appears, read: dose: 100.0 mg/kg/injection, schedule: Q01DX009 (ip), vehicle: saline.
Where [7] appears, read: dose: 0.2 mg/kg/injection, schedule: Q01DX009 (ip), vehicle: saline with Tween-80.
Setting [8] is: dose: 0.4 mg/kg/injection, schedule: Q01DX009 (ip), vehicle: saline with Tween-80.
Setting [9] is: dose: 0.8 mg/kg/injection, schedule: Q01DX009 (ip), vehicle: saline with Tween-80.
Setting [10] is: dose: 12.5 mg/kg/injection, schedule: Q01DX009 (ip), vehicle: saline with Tween-80.
The mark [11] stands for this setting: dose: 25.0 mg/kg/injection, schedule: Q01DX009 (ip), vehicle: saline with Tween-80.
Where [12] appears, read: dose: 50.0 mg/kg/injection, schedule: Q01DX009 (ip), vehicle: saline with Tween-80.
The mark [13] stands for this setting: dose: 100.0 mg/kg/injection, schedule: Q01DX009 (ip), vehicle: saline with Tween-80.
Setting [14] is: dose: 200.0 mg/kg/injection, schedule: Q01DX009 (ip), vehicle: saline with Tween-80.
[15] abbreviates: dose: 400.0 mg/kg/injection, schedule: Q01DX009 (ip), vehicle: saline with Tween-80.

Each structure is given as a SMILES string. Several values for one entry are separate records, joined by “and”; a condition that tells them apart may be missing. Equal entries are not always repeated. Inconclusive results and toxic doses are left out.

As for `COc1cc(NS(C)(=O)=O)ccc1Nc1c2cccc(C)c2nc2c(C)cccc12`, the T/C (dose: 0.8 mg/kg/injection, schedule: Q01DX009 (ip), vehicle: other) is 115 % of control; the T/C (dose: 1.6 mg/kg/injection, schedule: Q01DX009 (ip), vehicle: other) was 115 % of control; the T/C (dose: 6.25 mg/kg/injection, schedule: Q01DX009 (ip), vehicle: saline sonified) was 158 % of control; the T/C under setting [1] was 189 % of control; the T/C (dose: 12.5 mg/kg/injection, schedule: Q01DX009 (ip), vehicle: saline sonified) was 204 % of control; the T/C under setting [2] is 208 % of control. Moreover, the T/C by setting is: (dose: 25.0 mg/kg/injection, schedule: Q01DX009 (ip), vehicle: saline sonified) 183 % of control; (dose: 25.0 mg/kg/injection, schedule: Q04DX003 (ip), vehicle: other) 166 % of control; (dose: 50.0 mg/kg/injection, schedule: Q01DX001 (ip), vehicle: saline sonified) 169 % of control; (dose: 50.0 mg/kg/injection, schedule: Q04DX003 (ip), vehicle: other) 156 % of control; (dose: 100.0 mg/kg/injection, schedule: Q01DX001 (ip), vehicle: saline sonified) 165 % of control; (dose: 200.0 mg/kg/injection, schedule: Q01DX001 (ip), vehicle: saline sonified) 152 % of control.
On to `CN(C)CCCN1c2ccccc2CCc2ccc(Cl)cc21`, for which the T/C by setting is: under setting [3], 101 % of control; (dose: 12.5 mg/kg/injection, schedule: Q01DX009 (ip), vehicle: saline) 108 % of control; under setting [4], 115 % of control; under setting [5], 98 % of control.
In the case of `O=C(O)C(Cl)Cc1cnc[nH]1` (configuration not stated), the T/C is 111 % of control under setting [5]; 111 % of control under setting [6]; 112 % of control (dose: 200.0 mg/kg/injection, schedule: Q01DX009 (ip), vehicle: saline).
Regarding `COC(=O)c1nc(-c2ccc3c(n2)C(=O)C(N)=C(OC)C3=O)c(N)c(-c2ccc(OC)c(OC)c2O)c1C`, the T/C is, setting by setting: (dose: 0.1 mg/kg/injection, schedule: Q01DX009 (ip), vehicle: saline with Tween-80) 95 % of control; under setting [7], 97 % of control; under setting [8], 105 % of control; under setting [9], 104 % of control.
As to `CCCCC(=O)N(c1ccc(Nc2c3ccccc3nc3cc([N+](=O)[O-])ccc23)cc1)S(C)(=O)=O`, the T/C is 102 % of control (dose: 3.8 mg/kg/injection, schedule: Q01DX009 (ip), vehicle: saline with Tween-80); 122 % of control (dose: 12.5 mg/kg/injection, schedule: Q01DX001 (ip), vehicle: saline with Tween-80); 120 % of control (dose: 15.0 mg/kg/injection, schedule: Q01DX009 (ip), vehicle: saline with Tween-80).
`COc1cc(/C=C2/c3cc(Cl)ccc3-c3c(Cl)cc(Cl)cc32)cc(OC)c1OC`: the T/C runs as follows: under setting [7], 86 % of control; under setting [8], 86 % of control; under setting [9], 86 % of control.
Consider `CC(=O)Nc1ccc(S(=O)(=O)CO)cc1`, for which the T/C runs as follows: under setting [10], 97 % of control and 110 % of control; under setting [11], 100 % of control and 114 % of control; under setting [12], 95 % of control and 96 % of control; under setting [13], 92 % of control and 115 % of control; under setting [14], 90 % of control and 110 % of control; under setting [15], 89 % of control and 99 % of control.
Turning to `CC(=O)N(C)C(C(=O)N1CC(C)CC1C(=O)N(C)C1C(=O)NC(CC(C)C)C(=O)N2CC(C)CC2C(=O)NC(CC(C)C)C(=O)N(C)C(C(C)C)C(=O)N2CCCC2C(=O)N(C)C(CC(C)C)C(=O)NCC(=O)OC1C)C(C)C` (configuration not stated), the T/C (dose: 18.75 mg/kg/injection, schedule: Q01DX009 (ip), vehicle: Klucel (hydroxypropylcellulose) (HPC)) was 94 % of control; the T/C (dose: 37.5 mg/kg/injection, schedule: Q01DX009 (ip), vehicle: Klucel (hydroxypropylcellulose) (HPC)) is 97 % of control; the T/C (dose: 75.0 mg/kg/injection, schedule: Q01DX009 (ip), vehicle: Klucel (hydroxypropylcellulose) (HPC)) was 94 % of control.
Consider `O=C(CC(=O)C(F)(F)C(F)(F)C(F)(F)F)c1csc2ccccc12`, for which the T/C is, setting by setting: under setting [11], 97 % of control; under setting [12], 100 % of control; under setting [13], 92 % of control.
On to `Cc1ccc(S(=O)(=O)N/N=C\c2cc(Cl)ccc2O)cc1`, for which the T/C was 100 % of control (dose: 100.0 mg/kg/injection, schedule: Q01DX009 (ip), vehicle: Klucel (hydroxypropylcellulose) (HPC)); 105 % of control (dose: 200.0 mg/kg/injection, schedule: Q01DX009 (ip), vehicle: Klucel (hydroxypropylcellulose) (HPC)); 102 % of control (dose: 400.0 mg/kg/injection, schedule: Q01DX009 (ip), vehicle: Klucel (hydroxypropylcellulose) (HPC)).
`CC1=NN(c2ccccc2)C(=O)C1CC1C(=O)N(c2ccccc2)N=C1C` (configuration not stated): the T/C reads like this: under setting [13], 95 % of control; under setting [14], 95 % of control; under setting [15], 89 % of control.
As to `O=C(CCl)N1c2ccccc2Sc2ccc(Cl)cc21`, the T/C runs as follows: (dose: 6.25 mg/kg/injection, schedule: Q01DX009 (ip), vehicle: other) 107 % of control; under setting [1], 100 % of control; under setting [2], 100 % of control; (dose: 50.0 mg/kg/injection, schedule: Q01DX009 (ip), vehicle: other) 94 % of control; (dose: 100.0 mg/kg/injection, schedule: Q01DX009 (ip), vehicle: other) 87 % of control.
On to `CCOC(=O)CCC(NC(=O)c1ccc(NCc2ccc3nc(N)nc(N)c3c2C)cc1)C(=O)OCC` (configuration not stated), for which the T/C (dose: 0.01 mg/kg/injection, schedule: Q01DX009 (ip), vehicle: saline + alcohol) is 108 % of control; the T/C (dose: 0.02 mg/kg/injection, schedule: Q01DX009 (ip), vehicle: saline + alcohol) was 102 % of control; the T/C (dose: 0.03 mg/kg/injection, schedule: Q01DX009 (ip), vehicle: saline + alcohol) was 105 % of control; the T/C (dose: 0.06 mg/kg/injection, schedule: Q01DX009 (ip), vehicle: saline + alcohol) is 93 % of control; the T/C (dose: 0.11 mg/kg/injection, schedule: Q01DX009 (ip), vehicle: saline + alcohol) was 91 % of control.
In the case of `Cc1ccc(NC(=O)COc2ccc(Cl)cc2)c(C)c1`, the T/C (dose: 3.13 mg/kg/injection, schedule: Q01DX009 (ip), vehicle: saline with Tween-80) was 119 % of control; the T/C (dose: 6.25 mg/kg/injection, schedule: Q01DX009 (ip), vehicle: saline with Tween-80) was 107 % of control; the T/C under setting [10] is 97 % of control; the T/C under setting [11] is 95 % of control; the T/C under setting [12] was 91 % of control.
Take `FC(F)(F)c1nc2nc(Cl)c(Cl)nc2[nH]1`: the T/C is 116 % of control under setting [10], 114 % of control under setting [11] and 98 % of control under setting [12].
As to `FC(F)(F)c1ccc2c(c1)N(CCCN1CCN(CCC3OCCCO3)CC1)c1ccccc1S2`, the T/C by setting is: (dose: 0.78 mg/kg/injection, schedule: Q01DX009 (ip), vehicle: saline) 116 % of control; (dose: 1.56 mg/kg/injection, schedule: Q01DX009 (ip), vehicle: saline) 118 % of control; (dose: 3.12 mg/kg/injection, schedule: Q01DX009 (ip), vehicle: saline) 90 % of control; under setting [3], 115 % of control.
Consider `Nc1ncnc2c1c1c(N)[nH]nc1n2C1OC(CO)C(O)C1O` (configuration not stated), for which the T/C was 110 % of control under setting [4], 106 % of control under setting [5] and 95 % of control under setting [6].
Turning to `COc1cc([NH-])c([NH-])cc1OC.[Cl][Pt+2][Cl]`, the T/C was 97 % of control (dose: 10.0 mg/kg/injection, schedule: Q01DX009 (ip), vehicle: saline with Tween-80); 104 % of control (dose: 20.0 mg/kg/injection, schedule: Q01DX009 (ip), vehicle: saline with Tween-80); 103 % of control (dose: 40.0 mg/kg/injection, schedule: Q01DX009 (ip), vehicle: saline with Tween-80); 104 % of control (dose: 80.0 mg/kg/injection, schedule: Q01DX009 (ip), vehicle: saline with Tween-80); 94 % of control (dose: 160.0 mg/kg/injection, schedule: Q01DX009 (ip), vehicle: saline with Tween-80).

(Values after PubChem BioAssay AID192 (DTP/NCI, 2004).)
